Source: patent publication US9206154B2 (The United States of America, as represented by the …, priority 2010, dated 2015)

Columns and labels:
[1] = tested on: TPO, TSHR, TG, DIO2 and NIS mRNAs; assay: Basal expression of thyroid gene mRNAs in primary cultures of human thyrocytes (quantitative RT-PCR); assay type: cell-based; conditions: 30 μM, 48 hr, IBMX, no agonist
Description: FIG. 4B) Thyrocytes were incubated in media containing 2% fetal bovine serum and 1 mM IBMX without or with 30 μM 1 as described in Methods. After 48 h, the cells were lysed and the levels of the mRNAs were measured and normalized to GAPDH mRNA. The mRNA levels are presented as fold stimulation over control. The data are from three independent experiments with duplicate samples are shown.
Culture of primary human thyrocytes.
(§1) Quantitative RT-PCR. mRNA levels were measured using primers and probes were from Applied Biosystems. Quantitative RT-PCR results were normalized to GAPDH to correct for differences in RNA input.

adenylyl cyclase = assay: Forskolin-stimulated cAMP accumulation in human thyrocytes; assay type: cell-based
Excerpt: (§2) This was important because it has been shown that TSHR mutants signal differently in different cell types. […] TSH and the small molecule ligand agonist that were identified previously specifically increase expression of several genes in thyrocytes (J Biomol Screen 13, 120, 2008; Proc Nat Acad Sci 106, 12471, 2009).

beta-adrenergic receptor = assay: Isoproterenol-stimulated cAMP accumulation in human thyrocytes; assay type: cell-based
Excerpt: as §2

[2] = tested on: 7TMR for vasoactive intestinal peptide; assay: Vasoactive intestinal peptide-stimulated cAMP accumulation in human thyrocytes; assay type: cell-based
Excerpt: as §2

TSHR [3] = target: T1, TSHR (Homo sapiens, UniProt P16473); assay: Graves' disease sera-stimulated cAMP production in HEKTSHR cells; assay type: cell-based; conditions: 1:30 dilutions of thirty GD sera
T1 construct: expressed in transfected cells
Description: FIG. 13A. […] After an additional 40 min, the incubation was stopped and total cAMP levels were measured by ELISA. The data are from one experiment with triplicate samples and are representative of 3 experiments. The effects of compound S2-6 were significant by paired t-test (P<0.01).
FIG. 13B. HEKTSHR cells were incubated without (Control) or with 30 μM compound S2-6 for 20 min and then 1 mM IBMX and 1:30 dilutions of thirty GD sera were added. After an additional 40 min, the incubation was stopped and total cAMP levels were measured by ELISA. […] The data are representative of 2 experiments performed in duplicate.

TSHR [4] = target: T1, TSHR; assay: TSH-stimulated cAMP production in HEK-EM 293 cells stably expressing TSHRs; assay type: cell-based; conditions: for classification from dose response of TSH-stimulated cAMP (FIG. 11): 1 mU/ml hTSH (EC50 dose)
Description: (§3) After 60 min, the cells were lysed and cAMP levels were measured by ELISA.
(§4) Non-treated cells, incubated with IBMX only, were used as control (basal activity). After 60 min, the cells were lysed and cAMP levels were measured by ELISA. […] After 40 min, the incubation was stopped and total cAMP levels were measured by ELISA.
After 40 min, the incubation was stopped and total cAMP levels were measured by ELISA. The data are from 2 experiments with duplicate samples and are presented as mean±SE.
(§5) Determination of cAMP production.

[5] = target: T2, TSHRs on retro-orbital fibroblasts (Homo sapiens, UniProt P16473); assay: TSHR signaling in retro-orbital fibroblasts from patients with Graves' orbitopathy; assay type: cell-based; conditions: preliminary experiment; fibroblasts in cell culture
T2 construct: endogenous in cells; host or cells: cultured retro-orbital fibroblasts from Graves' orbitopathy patients
Excerpt: In a preliminary experiment, it has been shown that compound S2-6 inhibits activation of TSHRs on retro-orbital fibroblasts acquired from patients with Graves' orbitopathy. Retro-orbital fibroblasts were obtained from patients undergoing decompression eye surgery for Graves' orbitopathy and were adapted to cell culture.

TSHR [6] = target: T1, TSHR; assay: 125I-TSH binding to TSHRs on the surface of HEK-EM 293 cells; conditions: HEK-EM 293 / HEKTSHR cells
Description: HEK-EM293 cells stably expressing TSHRs were seeded into 24-well plates and grown to near confluency. Cell surface binding was measured by incubation in 0.25 ml binding buffer (HBSS containing 2.5% milk powder and 0.2% BSA) containing 60,000 cpm bovine ^125I-TSH without or with xx μM 1 for 2 hr at RT; nonspecific binding was measured in the presence of 1.8 μM unlabeled bovine TSH. Cells were washed 3 times with 0.5 ml ice cold HBSS and lysed with 0.5 ml 0.4 N NaOH, and the cell-associated radioactivity counted in a gamma counter.

TPO mRNA = assay: Basal and TSAb-induced up-regulation of TPO mRNA in primary cultures of human thyrocytes; assay type: cell-based; conditions: 30 μM, 1:10 dilutions of GD sera, 48 hr
Description: Thyrocytes were incubated in DMEM containing 2% fetal bovine serum without (Control) or with 30 μM compound S2-6 without (basal) or with 1:10 dilutions of GD sera at 37 C. After 48 hr, the buffers were aspirated, the cells were lysed and the levels of TPO mRNA were measured and normalized to GAPDH mRNA. The mRNA levels are presented as fold of basal levels (Control). The data from 2 independent experiments with duplicate samples are shown.
as §1

TSHR [7] = target: T1, TSHR; assay: Basal (agonist-independent) cAMP production in HEK-EM 293 cells stably expressing TSHRs; assay type: cell-based; conditions: for classification from dose response of basal cAMP (inverse agonist activity): 60 min in HBSS + 1 mM IBMX, % of basal activity
Description: as §3, §4
HEK-EM 293 cells stably expressing TSHRs were exposed to the noted concentrations of the small molecule ligands for 60 min in HBSS+1 mM IBMX. Non-treated cells, incubated with IBMX only, were used as control (basal activity). After 60 min, the cells were lysed and cAMP levels were measured by ELISA.
as §5

[8] = cited from earlier work
TSHR [9] = target: T1, TSHR; conditions: cited from earlier work

T1 sequence (P16473 21-764): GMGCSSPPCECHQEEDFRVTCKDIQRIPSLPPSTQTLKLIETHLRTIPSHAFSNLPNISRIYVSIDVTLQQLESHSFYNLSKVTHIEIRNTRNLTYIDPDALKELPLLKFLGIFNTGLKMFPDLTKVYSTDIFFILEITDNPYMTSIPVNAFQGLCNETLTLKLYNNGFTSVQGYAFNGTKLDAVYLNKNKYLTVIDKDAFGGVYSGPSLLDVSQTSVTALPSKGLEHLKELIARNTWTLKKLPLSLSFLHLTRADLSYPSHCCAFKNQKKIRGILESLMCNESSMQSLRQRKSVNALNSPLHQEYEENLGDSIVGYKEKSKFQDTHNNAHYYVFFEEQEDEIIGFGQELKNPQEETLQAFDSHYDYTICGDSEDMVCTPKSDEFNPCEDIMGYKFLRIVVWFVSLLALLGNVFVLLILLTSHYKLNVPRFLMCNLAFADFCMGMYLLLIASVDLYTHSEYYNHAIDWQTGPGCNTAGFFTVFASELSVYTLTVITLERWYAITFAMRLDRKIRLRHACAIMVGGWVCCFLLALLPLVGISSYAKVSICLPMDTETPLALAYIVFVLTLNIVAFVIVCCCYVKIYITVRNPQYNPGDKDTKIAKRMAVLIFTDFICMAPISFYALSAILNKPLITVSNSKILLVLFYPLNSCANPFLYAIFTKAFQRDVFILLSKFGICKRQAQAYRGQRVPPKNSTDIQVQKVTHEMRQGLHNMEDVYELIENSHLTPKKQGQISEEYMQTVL
T2 sequence (P16473 21-764): as above

In the case of `COc1ccc(C2Nc3ccccc3C(=O)N2Cc2ccco2)cc1COc1c(C)cccc1C` (centres unmarked) [Compound 1, 2-(3-((2,6-dimethylphenoxy)methyl)-4-methoxyphenyl)-3-(furan-2-ylmethyl)-2,3-dihydroquinazolin-4(1H)-one], the “DIO2 mRNA level” value [1] is reported as “decreased”, the “NIS mRNA level” value [1] is reported as “decreased” and the “TG mRNA level” value [1] is reported as “decreased”. The “TPO mRNA level” value [1] was “decreased”, the “TSHR mRNA level” value [1] was “decreased” and the “cAMP accumulation stimulated by forskolin” value (adenylyl cyclase) was “did not decrease”. For the same molecule, the “cAMP accumulation stimulated by isoproterenol” value (beta-adrenergic receptor) was “did not decrease” and the “cAMP accumulation stimulated by vasoactive intestinal peptide” value [2] was “did not decrease”.
In the case of `COc1ccc(C2Nc3ccccc3C(=O)N2Cc2cccnc2)cc1COc1c(C)cccc1C` (centres unmarked) [Compound S2-6, 2-(3-((2,6-dimethylphenoxy)methyl)-4-methoxyphenyl)-3-(pyridin-3-ylmethyl)-2,3-dihydroquinazolin-4-one], the inhibition at 30 µM (TSHR [3]) is reported as 39 ± 2.6%, the “classification from dose response of TSH-stimulated cAMP (FIG. 11)” value (shortened to “classification from dose response … (FIG. 11)”) (TSHR [4]) is reported as “neutral antagonists” and the inhibition at 30 µM (TSHR [4]; HEK-EM293, read-out: inhibition of cAMP production stimulated by an EC50 concentration of TSH at 30 μM) is reported as 53%. For the same molecule, the “mode of antagonism of TSH signaling” value (TSHR [4]; varying TSH concentrations (Schild analysis for compound 1)) was “competitive”, the “inhibition of basal signaling in retro-orbital fibroblasts” value [5] was 75% and the “inhibition of thyroid-stimulating antibody-stimulated signaling in retro-orbital fibroblasts” value [5] was 85%. The “effect on 125I-TSH binding to TSHRs” value (TSHR [6]) was “no effect”, the “inhibition of basal and GD sera TSAb up-regulation of thyroperoxidase mRNA levels” value (TPO mRNA) was 65±2.0% and the “classification from dose response of basal cAMP (inverse agonist activity)” value (“classification … (inverse agonist activity)” for short) (TSHR [7]) was “inverse agonists”. The inhibition at 30 µM (TSHR [7]; HEK-EM293, read-out: inhibition of basal cAMP production by TSHRs at 30 μM) was 53%, the “solubility relative to compound 1” value [8] was “increased solubility” and the “potency and efficacy as TSHR antagonist relative to compound 1” value (TSHR [9]) was “as potent and effective as compound 1”.
With `COc1ccc(C2Nc3ccccc3C(=O)N2Cc2ccco2)cc1COc1c(C)cc(NC(C)=O)cc1C` (centres unmarked) [Compound S2-7, N-(4-(5-(3-(Furan-2-ylmethyl)-4-oxo-1,2,3,4-tetrahydroquinazolin-2-yl)-2-methoxybenzyloxy)-3,5-dimethylphenyl)acetamide] the “classification from dose response … (FIG. 11)” value (TSHR [4]) was “neutral antagonists” and the “classification … (inverse agonist activity)” value (TSHR [7]) was “inverse agonists”.
For `COc1ccc(C2Nc3ccccc3C(=O)N2Cc2ccco2)cc1CSc1c(C)cccc1C` (centres unmarked) [Compound S2-8, 2-(3-((2,6-Dimethylphenylthio)methyl)-4-methoxyphenyl)-3-(furan-2-ylmethyl)-2,3-dihydroquinazolin-4(1H)-one], the “classification from dose response … (FIG. 11)” value (TSHR [4]) was “neutral antagonists” and the “classification … (inverse agonist activity)” value (TSHR [7]) was “neutral antagonist”.
In the case of `COc1ccc(C2Nc3ccccc3C(=O)N2Cc2cccnc2)cc1COc1c(C)cc(NC(C)=O)cc1C` (centres unmarked) [Compound S2-17, N-(4-(2-Methoxy-5-(4-oxo-3-(pyridin-3-ylmethyl)-1,2,3,4-tetrahydroquinazolin-2-yl)benzyloxy)-3,5-dimethylphenyl)acetamide], the “classification from dose response … (FIG. 11)” value (TSHR [4]) is reported as “neutral antagonists”.
For `COCCN1C(=O)c2ccccc2NC1c1ccc(OC)c(COc2c(C)cc(NC(C)=O)cc2C)c1` (centres unmarked) [Compound S2-29, N-(4-(2-methoxy-5-(3-(2-methoxyethyl)-4-oxo-1,2,3,4-tetrahydroquinazolin-2-yl)benzyloxy)-3,5-dimethylphenyl)acetamide], the “classification from dose response … (FIG. 11)” value (TSHR [4]) was “neutral antagonists”.
